{
  "source": "patent US10058097B2",
  "about": "“Methods to increase corn productivity” (Valent BioSciences Corporation, priority 2016, dated 2018)",
  "format_in_all_cases": "in vivo",
  "key": {"greenhouse-grown maize": {"tested_on": "greenhouse-grown maize", "assay": "Greenhouse study: effect of GA3 + GB dose on growth, seven days", "settings": "GA3 120 mg/liter, GB 0 mg/liter; spray at V3; n = 7 plants", "procedure": "(§1) In several of the following examples, corn was grown in greenhouse conditions, which are defined as follows. Seeds of a commercial hybrid variety were sown in Pro-Mix® BX (Pro-Mix is a registered trademark of Premier Horticulture Ltd.) with the addition of Osmocote (14-14-14) and gypsum in three-liter pots. Greenhouses were kept at 25±3° C. under a 16:8 hour photoperiod, with illumination at canopy level of ˜250 μmoles m^−2s^−1. Corn was typically fertigated with Peters 21-5-20+micronutrients, calcium ammonium nitrate and magnesium sulfate. Typical growth rates for corn under these conditions ranged from 4-5 cm/day.\n(§2) In most greenhouse studies, spray applications were made. These applications were made in a track sprayer outfitted with a 4001E Teejet® nozzle (Teejet is available from and a registered trademark of Spraying Systems Co., Glendale Heights, Ill., USA) and applied at 40 psi. Although application volumes did vary between some studies, generally, 30 gallons/acre of spray solution was applied. Following spray applications, plants were returned to the greenhouse. Typically, experiments were blocked according to plant size, and a randomized complete block design (RCB) was used.\nIn a greenhouse study, plants were sprayed at V3 stage with solutions containing a non-ionic surfactant (0.25%, v/v) at 30 gallons of spray solution/acre and growth was followed for seven days."}, "corn [1]": {"tested_on": "corn", "assay": "Nutrient stress greenhouse study, GA3 and/or GB, 7 days", "settings": "GA3 120 mg/liter, GB 10,000 mg/liter; for Change in Height: n = 7 plants", "procedure": "Synergy was determined using the following formula, in which a synergy factor is calculated by the Abbott method: % Cexp=A+B−(AB/100), here % Cexp is the expected efficacy and “in which A and B are the increase in growth (or resistance to stress) levels given by the single [plant growth regulators]. If the ratio between the experimentally observed efficacy of the mixture Cobs and the expected efficacy of the mixture is greater than 1, synergistic interactions are present in the mixture” (Gisi, Synergistic Interaction of Fungicides in Mixtures, The American Phytopathological Society, 86:11, 1273-1279, 1996).\nDuring rainy periods in March-May in the Midwestern United States, nitrogen fertilizer for corn is often limited due to a combination of leaching and mineralization. GB included with GA3 can help overcome the slow growth caused by low nutrients. In a greenhouse study in Long Grove, Ill. we evaluated the effect of GA3, GB and the combination under ‘normal nutrient’ and limited nutrient conditions."}, "potted corn plants [2]": {"tested_on": "potted corn plants", "assay": "Chronic drought stress greenhouse study, potted corn, 14 days", "settings": "20 Percent Volumetric Water Content, 120 mg/liter GA3, 3000 mg/liter GB, n = 5", "procedure": "In drought stress studies, corn plants were sprayed at the V4 stage with solutions containing a non-ionic surfactant (0.25%, v/v) at 30 gallons of spray solution/acre and growth was determined by change in height from time of treatment or fresh and dry shoot weight measurements 14 days later.\nIn greenhouse drought stress studies, corn plants were treated and subsequently watered with an automated irrigation system that maintained the soil moisture in the pots at 45% or 20% volumetric water content (“VWC”). Plants set to 20% after treatment took about 4 days without the automated system adding water to those pots to reach 20% VWC and then the automated system added water as needed to maintain 20% VWC. Total soil moisture capacity was 45% VWC and 20% VWC represented drought stress conditions. This would be considered chronic stress, as a lower level of VWC was maintained throughout the experiment after treatment."}, "corn [3]": {"tested_on": "corn", "assay": "Greenhouse study: Gibberellins, (S)-ABA and Glycine betaine on corn growth", "settings": "GA3 or GA4 120 mg/liter, GB 10000 mg/liter, (S)-ABA 8.8 mg/liter", "procedure": "as §1, §2\nWhen gibberellins are combined with specific ratios of (S)-(+)-abscisic acid (“(S)-ABA”), a surprising enhancement of corn growth after application is often observed. The addition of GB to gibberellin+(S)-ABA spray combinations further increases the growth-promoting activity of the mixtures, as is shown in Table 6."}, "potted corn plants [4]": {"tested_on": "potted corn plants", "assay": "Acute drought stress greenhouse study, potted corn, 7 and 14 days", "procedure": "In a separate acute drought stress greenhouse study conducted in Long Grove, Ill., corn plants were sprayed at V4 stage with solutions containing a non-ionic surfactant (0.25%, v/v) at 30 gallons of spray solution/acre and growth was determined by shoot height increase 7 and 14 days later. After treatment corn plants were not watered with the exception of one treatment of control (aqueous surfactant solution) that were watered as needed (well-watered control)."}, "[5]": {"settings": "acute drought stressed, 120 ppm GA3, 3000 ppm GB, spray at V4"}},
  "data": [
    {"smiles": "C=C1C[C@]23C[C@@]1(O)CC[C@H]2[C@@]12C=C[C@H](O)[C@@](C)(C(=O)O1)[C@H]2[C@@H]3C(=O)O", "note": "[GA3, gibberellic acid]", "values": [
      {"measurement": "Growth Rate", "setting": "greenhouse-grown maize", "result": 4.86, "unit": "cm/day"},
      {"measurement": "Plant Growth over 7 days", "setting": "greenhouse-grown maize", "result": 34.01, "unit": "cm"},
      {"measurement": "Dry Weight", "setting": "corn [1]; Low Nutrients", "result": 2.50, "unit": "g"},
      {"measurement": "Leaf Area (L1-L6)", "setting": "corn [1]; Low Nutrients", "result": 588.66, "unit": "cm^2"},
      {"measurement": "Change in Height", "setting": "corn [1]; Low Nutrients", "result": 30.34, "unit": "cm"},
      {"measurement": "Dry Weight", "setting": "corn [1]; Normal Nutrients", "result": 2.86, "unit": "g"},
      {"measurement": "Leaf Area (L1-L6)", "setting": "corn [1]; Normal Nutrients", "result": 629.45, "unit": "cm^2"},
      {"measurement": "Change in Height", "setting": "corn [1]; Normal Nutrients", "result": 38.83, "unit": "cm"},
      {"measurement": "Percent Dry Weight of Drought Stressed Control", "setting": "potted corn plants [2]", "result": 103.32, "unit": "%"},
      {"measurement": "Percent Fresh Weight of Drought Stressed Control", "setting": "potted corn plants [2]", "result": 106.11, "unit": "%"},
      {"measurement": "7 days Change in Height", "setting": "corn [3]", "result": 32.5, "unit": "cm"},
      {"measurement": "14 days Change in Height", "setting": "corn [3]", "result": 62.8, "unit": "cm"},
      {"measurement": "Dry Weight", "setting": "corn [3]", "result": 8.1, "unit": "g"},
      {"measurement": "Shoot Growth 7 days after treatment as Percent Increase as compared to Drought Stressed Control", "setting": "potted corn plants [4]; [5]", "result": 116.9, "unit": "%"},
      {"measurement": "Shoot Growth 14 days after treatment as Percent Increase as compared to Drought Stressed Control", "setting": "potted corn plants [4]; [5]", "result": 118.7, "unit": "%"},
      {"measurement": "increased growth under drought as compared to controls", "setting": "potted corn plants [4]; at 7 days", "result": 16.9, "unit": "%"},
      {"measurement": "increased growth under drought as compared to controls", "setting": "potted corn plants [4]; at 14 days", "result": 18.7, "unit": "%"}
    ]}
  ]
}
